This passage reports CC50, EC50 and COMMENT results from patent US20030203410A1, “Gestational agents which modulate cell proliferation” (priority 1999, published 2003).

Series [1] is described as follows: in vitro. The settings on record: African green monkey.
Another series relates to Vaccinia Virus. Briefly: microbe, parasite or virus in culture. In kind it is cell-based. The settings on record: for EC50: Orthopoxvirus vaccinia, EXPT EV/VC2.
A short description of series [2]: in vitro. The settings on record: human.
Another series deals with Herpes Simplex Type I. Briefly: Inhibition of viral cytopathic effect (visual CPE and neutral red), HSV-1 in MRC-5 cells. As to conditions: for EC50: EXPT EV/H1C2. The class given is cell-based, type 1 herpes (HSV-1). In general terms: Cytopathic effects are the visible damage that an infection or toxin causes in cultured cells.
The nature of series [3]: in vitro. As to conditions: African green monkey. This is another data set of the same source.
In series [4] the test system is Venezuelan Equine Encephalitis. The series is described as follows: microbe, parasite or virus in culture. In kind it is cell-based, Venezuelan equine encephalitis virus. As to conditions: for EC50: Venezuelan equine encephalitis virus, EXPT EV/VEC4.
For a further series, the system named is San Angelo Virus. Briefly: microbe, parasite or virus in culture. The class given is cell-based.
Series [5] is described as follows: in vitro. The settings on record: African green monkey. This is another data set of the same source.
Series [6] deals with African green monkey kidney (Vero) cells.
Series [7] can be described thus: in vitro. As to conditions: African green monkey. This is another data set of the same source.
For another series, the system named is Simian Rotavirus. The series is described as follows: Inhibition of viral cytopathic effect (visual CPE and neutral red), simian rotavirus in MA104 cells. In kind it is cell-based. The settings on record: for EC50: Rotavirus A, EXPT EV/RtC2.

In brackets after ≈: the same amount, converted by molar mass.

As to `Nc1ccn(C[C@@H](CO)OCP(=O)(O)O)c(=O)n1` [HPMPC, cidofovir], the CC50 in “in vitro [1]” was more than 100 µg/mL. For the same compound, the EC50 (in general, the concentration at which the effect is half-maximal) in the series on Vaccinia Virus (CV-1, neutral red assay) turned out to be 1.7 µg/mL (≈ 6.09 µM); with Vaccinia Virus (CV-1, visual CPE), 5.4 µg/mL (≈ 19.3 µM). Further, the figures for the COMMENT result in the series on Vaccinia Virus (neutral red assay) and with Vaccinia Virus (visual) were “Excellent activity” and “Very good activity”, respectively.
For the compound `Nc1nc2c(ncn2COCCO)c(=O)[nH]1` [Acyclovir, acyclovir], in the series “in vitro [2]”, the CC50 is more than 100 µg/mL. Further, the EC50 turned out to be 0.4 µg/mL (≈ 1.78 µM) with Herpes Simplex Type I (Human alphaherpesvirus 1, MRC5, neutral red assay) and 0.6 µg/mL (≈ 2.66 µM) in the series on Herpes Simplex Type I (Human alphaherpesvirus 1, MRC5, visual CPE). Also, the COMMENT entry in the series on Herpes Simplex Type I (neutral red assay) and in the series with Herpes Simplex Type I (visual) was “Excellent activity” throughout.
`NC(=O)c1ncn([C@@H]2O[C@H](CO)[C@@H](O)[C@H]2O)n1` [Ribavirin, ribavirin]: the CC50 is 560 µg/mL (≈ 2290 µM) in “in vitro [3]”, more than 100 µg/mL in the series “in vitro [5]”, 530 µg/mL (≈ 2170 µM) in series [6] and more than 100 µg/mL in “in vitro [7]”. The EC50 is more than 100 µg/mL in series [4] (MA104, neutral red assay, neutral red data questionable); 7.6 µg/mL (≈ 31.1 µM) in [4] (MA104, visual CPE); 30 µg/mL (≈ 123 µM) in the series with San Angelo Virus (San Angelo virus, Vero); 56 µg/mL (≈ 229 µM) with Simian Rotavirus (MA104, neutral red assay); 18 µg/mL (≈ 73.7 µM) in the series with Simian Rotavirus (MA104, visual CPE). Also, the COMMENT result was “Very good activity” in series [4] (visual), “Very good activity” with San Angelo Virus, “Slight activity” in the series with Simian Rotavirus (neutral red assay) and “Moderate activity” in the series with Simian Rotavirus (visual).
